# How the values were obtained:
# cloned human M2 receptor = target: T1, cloned human M2 receptor (Homo sapiens, UniProt P08172); assay: hM2 receptor GTPγS binding; format: biochemical; settings: CHO membranes expressing hM2, [35S]GTPγS binding
# T1 construct: purchased Perkin-Elmer RBHM2M; host or cells: Chinese hamster ovary cells (CHO), membranes
# T1 sequence (P08172 1-466): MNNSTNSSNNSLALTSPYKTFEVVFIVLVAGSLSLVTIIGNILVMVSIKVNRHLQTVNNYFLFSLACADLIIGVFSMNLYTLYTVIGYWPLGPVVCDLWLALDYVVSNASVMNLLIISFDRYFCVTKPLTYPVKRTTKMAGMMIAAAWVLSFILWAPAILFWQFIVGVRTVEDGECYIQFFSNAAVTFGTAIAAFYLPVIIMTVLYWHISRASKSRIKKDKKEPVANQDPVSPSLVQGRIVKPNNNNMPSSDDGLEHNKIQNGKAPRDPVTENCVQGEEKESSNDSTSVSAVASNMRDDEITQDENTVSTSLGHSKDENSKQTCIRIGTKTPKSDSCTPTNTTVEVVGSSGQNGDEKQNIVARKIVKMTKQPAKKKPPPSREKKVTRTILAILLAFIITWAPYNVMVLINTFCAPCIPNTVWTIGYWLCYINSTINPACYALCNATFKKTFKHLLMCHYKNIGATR
# [1] = target: T2, hM5 (human Muscarinic receptor subtype 5) (Homo sapiens, UniProt P08912); assay: Human M5 calcium mobilization FLIPR assay; format: cell-based; settings: hM5 expressed in CHO cells, intracellular Ca2+ release (FLIPR)
# T2 construct: expressed in transfected cells; host or cells: CHO cells (ATCC)
# T2 sequence (P08912 1-532): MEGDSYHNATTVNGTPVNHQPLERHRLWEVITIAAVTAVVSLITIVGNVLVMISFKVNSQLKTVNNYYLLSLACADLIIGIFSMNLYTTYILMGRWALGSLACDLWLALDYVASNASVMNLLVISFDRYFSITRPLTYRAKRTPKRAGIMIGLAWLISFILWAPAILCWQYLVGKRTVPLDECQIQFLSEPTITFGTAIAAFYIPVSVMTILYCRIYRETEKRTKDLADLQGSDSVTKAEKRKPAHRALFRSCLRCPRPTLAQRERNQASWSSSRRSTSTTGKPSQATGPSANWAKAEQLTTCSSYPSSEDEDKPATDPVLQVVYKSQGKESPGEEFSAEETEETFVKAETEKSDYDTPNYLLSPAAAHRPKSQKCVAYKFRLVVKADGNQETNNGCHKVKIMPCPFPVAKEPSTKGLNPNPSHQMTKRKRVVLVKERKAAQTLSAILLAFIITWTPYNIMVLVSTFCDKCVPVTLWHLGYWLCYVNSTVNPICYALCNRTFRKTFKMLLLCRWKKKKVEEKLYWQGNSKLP
# Method: Human M1, rat M1, Human M3 and Human M5 Calcium Mobilization FLIPR™ Assay The compound activity in the present invention (EC50 or IC50) is measured using a 384 plate-based imaging assay that monitors drug induced intracellular Ca^2+ release in whole cells. Activation of hM1 (human Muscarinic receptor subtype 1, gene bank access NM_000738), rM1 (rat Muscarinic receptor subtype 1, gene bank access NM_080773), hM3 (human Muscarinic receptor subtype 3, gene bank access NM_000740NM_000740) and hM5 (human Muscarinic receptor subtype 5, gene bank access NM_0121258), receptors expressed in CHO cells (Chinese hamster ovary cells, ATCC) is quantified in a Molecular Devices FLIPR IITM instrument as an increase in fluorescent signal. Inhibition of hM3 and hM5 by compounds is determined by the decrease in fluorescent signal in response to 2 nM acetylcholine activation. […] Prior to experiment, the cell culture medium is removed from the plates by inversion. […] Plates are incubated at 37° C. for 60 minutes prior to start the experiment. The incubation is terminated by washing the cells four times in assay buffer, leaving a residual 25 μl buffer per well. Cell plates are then transferred to the FLIPR, ready for compound additions. The day of experiment, acetylcholine and compounds are diluted in assay buffer in three-fold concentration range (10 points serial dilution) for addition by FLIPR instrument. For all calcium assays, a baseline reading is taken for 10 seconds followed by the addition of 12.5 μl of compounds, resulting in a total well volume of 37.5 μl. Data is collected every second for 60 pictures and then every 6 seconds for 20 pictures prior to the addition of agonist. For hM3 and hM5, before agonist addition, a second baseline reading is taken for 10 seconds followed by the addition of 12.5 μl of agonist or buffer, producing a final volume of 50 μl. After agonist stimulation, the FLIPR continues to collect data every second for 60 pictures and then every 6 seconds for 20 pictures. The fluorescence emission is read using filter 1 (emission 510-570 nm) by the FLIPR on board CCD camera. Calcium mobilization output data are calculated as the maximal relative fluorescence unit (RFU) minus the minimal value for both compound and agonist reading frame (except for hM1 and rM1 using only the maximal RFU). Data are analyzed using sigmoidal fits of a non-linear curve-fitting program (XLfit version 4.2.2 Excel add-in version 4.2.2 build 18 math 1Q version 2.1.2 build 18). All pEC50 and pIC50 values are reported as arithmetic means±standard error of mean of ‘n’ independent experiments.
smiles,measurement,setting,value
"CCOC[C@@H]1CC[C@H](N2CCC(N3C(=O)CO[C@H]4CCCC[C@@H]43)CC2)C1 [Example 43, (4aS,8aS)-4-(1-((1S,3R)-3-(ethoxymethyl)cyclopentyl)piperidin-4-yl)hexahydro-2H-benzo[b][1,4]oxazin-3(4H)-one]",EC50,cloned human M2 receptor,> 3.9 µM
same,EC50,[1],> 40 µM

# Source: patent US20090275574A1, “NOVEL COMPOUNDS-300” (ASTRAZENECA AB, priority 2008, published 2009)
